Laboratory results taken from patent US12077551B2, “Zinc complex, preparation thereof and use thereof for trerapy of human and animal diseases” (OBSCHESTVO S OGRANICHENNOI OTVETSTVENNOSTIYU “Z …, priority 2018, dated 2024).
pIC50: −log10 of the molar value.

Tests used:
[1] = biological target: recombinant intracellular human glutaminyl cyclase (Homo sapiens, UniProt Q9NXS2); test: Enzymatic activity of human glutaminyl cyclase in vitro (fluorescent substrate Gln-bNA); type: biochemical; conditions: 25° C., 50 μM Gln-bNA, pH 8.0, enzyme incubated with compound for 5 minutes; read-out: IC50, inhibition of glutaminyl cyclase activity
Sequence of recombinant intracellular human glutaminyl cyclase (Q9NXS2 whole entry): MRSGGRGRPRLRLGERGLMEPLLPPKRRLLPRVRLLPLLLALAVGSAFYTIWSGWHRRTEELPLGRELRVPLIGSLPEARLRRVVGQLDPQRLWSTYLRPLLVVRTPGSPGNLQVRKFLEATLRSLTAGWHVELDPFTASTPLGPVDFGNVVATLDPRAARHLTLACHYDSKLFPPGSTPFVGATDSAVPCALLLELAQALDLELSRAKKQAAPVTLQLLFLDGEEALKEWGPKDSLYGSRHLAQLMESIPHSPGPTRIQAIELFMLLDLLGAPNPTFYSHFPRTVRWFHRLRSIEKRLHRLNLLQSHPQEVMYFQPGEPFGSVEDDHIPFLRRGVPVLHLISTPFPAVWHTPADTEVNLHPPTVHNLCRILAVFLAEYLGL
Experimental: In the studies of the effect of Compound 1 (which is the subject of the present invention) on the enzymatic activity of glutaminyl cyclase in vitro, the direct inhibitory effect of Compound 1 on recombinant intracellular human glutaminyl cyclase was discovered.
The activity of glutaminyl cyclase at various Compound 1 concentrations was studied at 25° C. using the fluorescent substrate L-glutaminyl 2-naphthylamide (Gln-bNA) [Anal Biochem. 2002 Apr. 1; 303 (1): 49-56]. The reaction mixture with a volume of 100 μl contained 50 μM of a fluorogenic substrate; ˜0.2 units of human pyroglutaminyl aminopeptidase (1 unit is defined as the amount that hydrolyzes 1 micromole of pGlu-bNA per minute), and an aliquot of recombinant intracellular human glutaminyl cyclase (gQC) in […] trisaminomethane HCl and 5% glycerol, pH 8.0. The reaction was initiated by adding an aliquot of glutaminyl cyclase incubated with Compound 1 for 5 minutes to the reaction mixture.
Further progression of the reaction was monitored spectrophotometrically (excitation and emission wavelengths were 320 and 410 nm). Enzymatic activity was determined by the amount of released 2-naphthylamide (bNA), calculated based on the calibration curve. IC50 values were calculated using non-linear regression of the “inhibitor concentration”-“enzyme activity” curve.

[2] = system: mouse atopic dermatitis model; test: Mouse atopic dermatitis model (DNCB), histological analysis of the affected ear; type: in vivo, male mice of the balb/c strain
Experimental: Experimental technique. The study of Compound 1 activity in the model of atopic dermatitis was carried out using the standard technique [Evidence-based Complementary and Alternative Medicine. 2012. Article ID 545497, 9 pages). For the experimental group, we selected animals of average appearance without signs of deviations, with the weight of the animal being no more than ±20% from the average value within the sex. On days 0 and 12 of the experiment, male mice of the balb/c strain were treated with 100 μl of a 2% solution of 1-chloro-2,4-dinitrobenzene (DNCB) in ethanol applied to the previously shaved areas on the back to sensitize the body. On the 17th day, 20 μl of 2% alcohol solution of DNCB was applied to the “test” right ear of the animals twice with an interval of 1 hour. Compound 1 cream with an active substance content of 0.01 wt % was administered topically, to the “test” right ear, twice: 1 and 13 hours after the last application of DNCB to the ear. The following were used as a comparison/reference/control medications: Methylprednisolone aceponate ([…] ointment for external use), pyrithione zinc (0.2% cream for external use), pimecrolimus (1% cream for external use) and cream for external use containing gamma-L-glutamylhistamine 0.01%. On the 18th day, the animals were euthanized and the histological analysis of the affected ear was performed. Histological sections with a thickness of 5 μm were stained with hematoxylin-eosin. […] The data obtained were verified using the Grubbs test, also known as the maximum normalized residual test a test used to detect outliers in a data set. The values identified as “outliers” in this test were not used for further analysis. Descriptive statistics were used for all data: the mean (M) and standard error of the mean (m) were calculated. The normal distribution of the values obtained in the experiment was verified using the Kolmogorov-Smirnov test. In the case of a normal distribution, Student's t-test was used to assess intergroup differences. […] Differences were determined at a 5% confidence level.

[3] = Solubility and dissociation of the product (NMR solvents, D2O spectrum); type: physicochemical
From the text: The prepared resulting product is insoluble in solvents which are used to record NMR spectra.
It mainly contains the residual signal of the non-deuterated solvent, and low-intensity signals corresponding to the original gamma-L-glutamylhistamine.

- pIC50 [1]: 4.59
- solubility in solvents used to record NMR spectra ([3]; product of Example 2): insoluble
- dissociation in aqueous suspensions ([3]; product of Example 2, D2O NMR spectrum): insignificant dissociation
Substance: zinc complex of gamma-L-glutamylhistamine [Compound 1]
- action in comparison with the gamma-L-glutamylhistamine ligand ([2]; 0.01 wt % cream vs cream containing gamma-L-glutamylhistamine 0.01%): significant improvement
- effectiveness in comparison with the reference drugs methylprednisolone aceponate, zinc pyrithione and pimecrolimus ([2]; 0.01 wt % cream vs reference ointment/creams): superior performance
- influx of inflammatory cells (monocytes, dendritic cells, eosinophils and neutrophils) into the epidermis and dermis of the skin ([2]; 0.01 wt % cream, topical to right ear, 1 and 13 hours after last DNCB application, histology on day 18): to the level of intact animals
